Laboratory results reported in patent publication US8188284B2, “2-aminoquinolines” (Hoffman-La Roche Inc., priority 2008, dated 2012).

Experiments:
[1] = molecular target: T1, recombinant human 5-HT5A receptor (Homo sapiens, UniProt P47898); assay: [3H]LSD radioligand binding assay; details: [3H]LSD (approximately 1 nM), membranes from HEK-EBNA cells transiently expressing 5-HT5A receptors; Ki calculated from IC50 using the Cheng-Prussoff equation; read-out: Ki/nM 5-HT5A
T1 construct: expressed in transfected cells; host or cells: HEK-EBNA (Human Embryonic Kidney-EBNA) cells, transient cDNA expression, membranes
T1 sequence (P47898 whole entry): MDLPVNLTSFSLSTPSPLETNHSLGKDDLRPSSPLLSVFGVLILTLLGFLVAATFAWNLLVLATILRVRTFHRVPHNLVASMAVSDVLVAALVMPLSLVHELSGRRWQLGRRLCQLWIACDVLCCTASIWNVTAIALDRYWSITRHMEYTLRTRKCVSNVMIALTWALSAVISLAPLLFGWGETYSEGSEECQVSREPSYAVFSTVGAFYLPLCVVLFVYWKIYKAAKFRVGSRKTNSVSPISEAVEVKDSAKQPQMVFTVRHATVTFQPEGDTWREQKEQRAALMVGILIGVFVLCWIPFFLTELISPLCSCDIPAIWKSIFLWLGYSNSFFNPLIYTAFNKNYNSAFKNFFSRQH
Procedure: A [^3H]LSD radioligand binding assay was used to determine the affinity of the compounds for the recombinant human 5-HT5A receptor, in membranes from transiently (cDNA) expressed 5-HT5A receptors in Human Embryonic Kidney-EBNA (HEK-EBNA) cells. Assay buffer consisted of Tris (50 mM) buffer containing 1 mM EGTA, 10 mM MgCl2 (pH 7.4) and 10 μM pargyline. The binding assay was carried out in 96-well-plates in the presence of [^3H]LSD (approximately 1 nM), approximately 2 μg/well of membrane protein, and 0.5 mg of Ysi-poly-1-lysine SPA beads in a final volume of 200 μl of buffer. Non-specific binding was defined using methiothepin 2 μM. Compounds were tested at 10 concentrations. All assays were conducted in duplicate and repeated at least two times. Assay plates were incubated for 120 min at room temperature before centrifugation. Bound ligand was determined using a Packard Topcount scintillation counter. IC50 values were calculated using a non-linear curve fitting program and Ki values calculated using the Cheng-Prussoff equation.

Row | Compound | melting point | Ki [1]
1 | CC(C)(C)n1nnc(Nc2ccc3nc(N[C@@H]4CCc5ccccc54)ccc3c2)n1 [Example 75, N^6-(2-tert-Butyl-2H-tetrazol-5-yl)-N^2—(R)-indan-1-yl-quinoline-2,6-diamine] | 146 °C | 25.9 nM
2 | COc1cccc2c1C(Nc1ccc3cc(Nc4nccc(C(F)(F)F)n4)ccc3n1)CC2 (racemic) [Example 92, rac-N^2-(7-Methoxy-indan-1-yl)-N^6-(4-trifluoromethyl-pyrimidin-2-yl)-quinoline-2,6-diamine] | 196 °C | 4.3 nM
3 | COc1ccccc1CNC(=O)c1ccc2nc(N[C@@H]3CCc4ccccc43)ccc2c1 [Example 55, 2-((R)-Indan-1-ylamino)-quinoline-6-carboxylic acid 2-methoxy-benzylamide] | 168 °C | 281 nM
4 | c1ccc2c(c1)CC[C@H]2Nc1ccc2cc(Nc3nnc(C4CC4)o3)ccc2n1 [Example 76, N^6-(5-Cyclopropyl-[1,3,4]oxadiazol-2-yl)-N^2—(R)-indan-1-yl-quinoline-2,6-diamine] | 226 °C | 24.8 nM
5 | c1ccc(Nc2ccc3nc(N[C@@H]4CCc5ccccc54)ccc3c2)nc1 [Example 69, N^2—(R)-Indan-1-yl-N^6-pyridin-2-yl-quinoline-2,6-diamine] | 77 °C | 20.4 nM
6 | Cc1nnc(Nc2ccc3nc(N[C@@H]4CCc5ccccc54)ccc3c2)o1 [Example 77, N^2—(R)-Indan-1-yl-N^6-(5-methyl-[1,3,4]oxadiazol-2-yl)-quinoline-2,6-diamine] | 129 °C | 21.2 nM
7 | COc1cccc2c1C(Nc1ccc3cc(Nc4cccc(C(F)(F)F)n4)ccc3n1)CC2 (racemic) [Example 91, rac-N^2-(7-Methoxy-indan-1-yl)-N^6-(6-trifluoromethyl-pyridin-2-yl)-quinoline-2,6-diamine] | 126 °C | 5.4 nM
8 | ON=C(c1ccc(F)cc1)c1ccc2nc(N[C@@H]3CCc4ccccc43)ccc2c1 [Example 56, (4-Fluoro-phenyl)-[2-((R)-indan-1-ylamino)-quinolin-6-yl]-methanone oxime] | 225.5 °C | 141 nM
9 | c1cnc(Nc2ccc3nc(N[C@@H]4CCc5ccccc54)ccc3c2)nc1 [Example 66, N^2—(R)-Indan-1-yl-N6-pyrimidin-2-yl-quinoline-2,6-diamine] | 142 °C | 23.2 nM
10 | COc1cccc2c1C(Nc1ccc3cc(Nc4cccc(C(F)(F)F)n4)ccc3n1)CO2 (racemic) [Example 109, rac-N^2-(4-Methoxy-2,3-dihydro-benzofuran-3-yl)-N^6-(6-trifluoromethyl-pyridin-2-yl)-quinoline-2,6-diamine] | 132 °C | 26.1 nM
11 | COc1cccc2c1C(Nc1ccc3cc(Nc4cc(C)on4)ccc3n1)CC2 (racemic) [Example 95, rac-N^2-(7-Methoxy-indan-1-yl)-N^6-(5-methyl-isoxazol-3-yl)-quinoline-2,6-diamine] | 109 °C | 3.5 nM
12 | COc1cccc2c1C(Nc1ccc3cc(Nc4nccc(C(F)(F)F)n4)ccc3n1)CO2 (racemic) [Example 110, rac-N^2-(4-Methoxy-2,3-dihydro-benzofuran-3-yl)-N^6-(4-trifluoromethyl-pyrimidin-2-yl)-quinoline-2,6-diamine] | 185 °C | 11.8 nM
13 | Cc1cc(Nc2ccc3nc(NC4CCc5cc(F)ccc54)ccc3c2)no1 (racemic) [Example 106, rac-N^2-(5-Fluoro-indan-1-yl)-N^6-(5-methyl-isoxazol-3-yl)-quinoline-2,6-diamine] | 166 °C | 7.3 nM
14 | OCCc1cccc(Nc2ccc3nc(N[C@@H]4CCc5ccccc54)ccc3c2)c1 [Example 83, 2-{3-[2-((R)-Indan-1-ylamino)-quinolin-6-ylamino]-phenyl}-ethanol] | 109 °C | 9.6 nM
15 | O=C(NCc1ccc(F)cc1)c1ccc2nc(N[C@@H]3CCc4ccccc43)ccc2c1 [Example 52, 2-((R)-Indan-1-ylamino)-quinoline-6-carboxylic acid 4-fluoro-benzylamide] | 175 °C | 
16 | Fc1ccc2c(c1)CCC2Nc1ccc2cc(Nc3nccc(C(F)(F)F)n3)ccc2n1 (racemic) [Example 103, rac-N^2-(5-Fluoro-indan-1-yl)-N^6-(4-trifluoromethyl-pyrimidin-2-yl)-quinoline-2,6-diamine] | 112 °C | 13.7 nM
17 | FC(F)(F)c1ccnc(Nc2ccc3nc(N[C@@H]4CCc5ccccc54)ccc3c2)n1 [Example 73, N^2—(R)-Indan-1-yl-N^6-(4-trifluoromethyl-pyrimidin-2-yl)-quinoline-2,6-diamine] | 165 °C | 11 nM
18 | CN(c1ccc(F)cc1)S(=O)(=O)Nc1ccc2nc(N[C@@H]3CCc4ccccc43)ccc2c1 [Example 41, N′-{2-[(1R)-2,3-dihydro-1H-inden-1-ylamino]quinolin-6-yl}-N-(4-fluorophenyl)-N-methylsulfamide] |  | 25.8 nM

Further lines, results first:

Row | melting point | Ki [1] | Compound
19 | 128 °C |  | FC(F)(F)c1ccnc(Nc2ccc3nc(NC4COc5ccccc54)ccc3c2)n1 (racemic) [Example 98, rac-N^2-(2,3-Dihydro-benzofuran-3-yl)-N^6-(4-trifluoromethyl-pyrimidin-2-yl)-quinoline-2,6-diamine]
20 | 88 °C | 15.7 nM | Cc1cc(C)nc(Nc2ccc3nc(N[C@@H]4CCc5ccccc54)ccc3c2)n1 [Example 67, N^6-(4,6-Dimethyl-pyrimidin-2-yl)-N^2—(R)-indan-1-yl-quinoline-2,6-diamine]
21 | 213 °C |  | Cc1cc(C)nc(Nc2ccc3nc(NC4COc5ccccc54)ccc3c2)n1 (racemic) [Example 97, rac-N^2-(2,3-Dihydro-benzofuran-3-yl)-N^6-(4,6-dimethyl-pyrimidin-2-yl)-quinoline-2,6-diamine]
22 | 103 °C | 20 nM | Cc1ccnc(Nc2ccc3nc(N[C@@H]4CCc5ccccc54)ccc3c2)n1 [Example 68, N^2—(R)-Indan-1-yl-N^6-(4-methyl-pyrimidin-2-yl)-quinoline-2,6-diamine]
23 | 150 °C | 3.4 nM | COc1cccc2c1C(Nc1ccc3cc(Nc4nc(C)cc(C)n4)ccc3n1)CC2 (racemic) [Example 93, rac-N^6-(4,6-Dimethyl-pyrimidin-2-yl)-N^2-(7-methoxy-indan-1-yl)-quinoline-2,6-diamine]
24 | 195 °C |  | Cc1cc(Nc2ccc3nc(NC4COc5ccccc54)ccc3c2)no1 (racemic) [Example 101, rac-N^2-(2,3-Dihydro-benzofuran-3-yl)-N^6-(5-methyl-isoxazol-3-yl)-quinoline-2,6-diamine]
25 | 72 °C | 7.7 nM | Cc1cccc(Nc2ccc3nc(N[C@@H]4CCc5ccccc54)ccc3c2)n1 [Example 72, N^2—(R)-Indan-1-yl-N^6-(6-methyl-pyridin-2-yl)-quinoline-2,6-diamine]
26 | 145 °C | 9.1 nM | COc1cccc2c1C(Nc1ccc3cc(Nc4nc(C)cc(C)n4)ccc3n1)CO2 (racemic) [Example 111, rac-N^6-(4,6-Dimethyl-pyrimidin-2-yl)-N^2-(4-methoxy-2,3-dihydro-benzofuran-3-yl)-quinoline-2,6-diamine]
27 | 127 °C | 8.7 nM | Cc1cc(Nc2ccc3nc(N[C@@H]4CCc5ccccc54)ccc3c2)no1 [Example 74, N^2—(R)-Indan-1-yl-N^6-(5-methyl-isoxazol-3-yl)-quinoline-2,6-diamine]
28 | 222 °C | 14.4 nM | COc1cccc2c1C(Nc1ccc3cc(Nc4cc(C)on4)ccc3n1)CO2 (racemic) [Example 113, rac-N^2-(4-Methoxy-2,3-dihydro-benzofuran-3-yl)-N^6-(5-methyl-isoxazol-3-yl)-quinoline-2,6-diamine]
